Assay results taken from patent US5162302A, “Endocrine manipulation to improve body composition of poultry” (University of Delaware, priority 1990, dated 1992).
Where two headings read alike, the source gives them in different places.

What was measured:
[1] = Dietary T3 in finishing feed, dose-response: plasma T3, muscle protein turnover, fat, growth, hormones
[2] = Three daily intravenous injections of GRF and dietary T3: growth, feed efficiency, body composition (Example 2); format: in vivo, broiler chickens
Excerpt: Bird management. Day-old broiler cockerels (Ross X Arbor Acre strain) were obtained from a commercial hatchery (Longnecker Hatchery, Elizabethtown, PA) and randomly assigned in groups of four birds to pens in a heated-battery brooder. Chicks were provided with a commercial broiler-starter ration (Pennfield Corp., Lancaster, PA), containing 3100 kcal metabolizable energy/kg feed and 23% crude protein, and water ad libitum. At 3 weeks of age, birds were transferred to wire pens held in a controlled-environment room. From 3 to 7 weeks of age, birds were maintained under a 20L:4D light-dark cycle at 21° C. and continuously provided with water and a commercial broiler-finisher ration containing 3250 kcal metabolizable energy/kg feed and 20% crude protein. Broiler cockerels were given three daily intravenous injections of either buffer (0.1M phosphate buffer, pH 7.0; BC) or GRF dissloved in buffer (25 μg/kg body weight) at 0800, 1600, and 2400 hr.
Dietary T3 and GRF Treatments. Four treatments were randomly assigned to pens in a randomized-complete-block design with three replicate pens per treatment. […] All birds were weighted at three day intervals to adjust the daily GRF dosage. Recombinant-derived human growth hormone-releasing factor (rhGRF1-44) was obtained from Pitman-Moore, Inc. (Terre Haute, IN).
The average daily gain (ADG), average daily feed consuption (ADFC) and the gain-to-feed ratio (GTF) were determined for the two week period (5 to 7 weeks of age). At the end of the experiment (7 weeks of age), each bird was killed to obtain the final body, abdominal fat and liver weights. Carcasses were frozen for determination of body composition as described in Example 1.
Statistical analyses. A randomized-complete-block design was used in which the four treatments were replicated in three pens. The growth data were analyzed with the pen as the experimental unit, since feed comsumption was determined for each pen of four birds. Significant differences (P≤0.05) due to the main effect of treatment were determined by Fisher's Least Significant Difference test.

[3] = 0.25 to 1 ppm in diet throughout the entire growth cycle; cited from earlier work
[4] = Three daily intramuscular injections of GRF and dietary T3: growth, feed efficiency, body composition (Example 1); format: in vivo, broiler chickens
Procedure: Bird management. One day-old broiler cockerels (Ross x Arbor acre) were obtained from a commercial hatchery (Perdue Hatchery, Salisburg, MD). Five birds were randomly assigned to each of 24 pens during the first three weeks. Birds were housed in a Petersime battery-brooder and maintained in a environmentally controlled room on a 20L:4D light/dark cycle. The temperature was held at 33° C. for the first week and reduced 3° C. at weekly intervals. During this period, the chicks were provided with commercial starter ration (3100 kcal ME/kg and 22% crude protein) and water ad libitum.
At 3 weeks-of-age, four birds per pen were moved to wire cages. From 3 to 4 weeks of age, birds were fed a commercial broiler grower/finisher ration containing 19% crude protein and 3200 kcal metabolizable energy/kg. At 4 weeks of age, birds were fed a special high-protein ration that contained 25% crude protein and 3250 kcal ME/kg feed (See Table 1). […] During the experimental period (5 to 7 weeks of age), individual body weights and feed consumption were determined at weekly intervals for calculation of average daily gain (ADG), average daily feed consumption (ADFC) and gain-to-feed ratio (GTF).
Hormone treatments. […] Synthetic human pancreatic growth releasing factor (hpGRF1-44) was obtained from Pitman-Moore, Inc. (Terre Haute, IN). […] Begining at 35 days of age, broiler cockerels were given three daily intramuscular injections of buffer (0.05M sodium acetate, pH 5.0) or GRF dissolved in buffer (10 μg/kg body weight) each day at 0800, 1600, and 2400 hr. Each bird was weighed a 3 day intervals to adjust GRF dosage.
At 49 days of age, chickens were starved for 24 hours and killed for determination of final body, abdominal fat pad, and liver weights. Carcasses from one-half of the birds in each pen (2 birds/pen) were frozen for determination of body composition by proximate analysis. Each frozen carcass, including the liver and abdominal fat, was ground twice in meat grinder fitted with a one-quarter inch dye (Biro Model 5, Biro Mfg. Co., Marblehead, OH). Aliquots of the ground meat were dried at 80° C. for moisture determination. Dried samples were analyzed for protein by macro-Kjeldahl, fat by ether extraction, and ash contents according to established analytical procedures. Body composition data are presented as a percent of final body weight at 7 weeks of age.
Statistical analyses. All data were analyzed with the pen as the experimental unit since dietary treatments were applied to the pen and feed consumption was determined for each pen. Least squares regression analysis was used to test for effects of treatments on ADG, ADFC, GTF, body weight and body composition. Significant differences (P<0.05) among treatments were determined by Fisher's least significant difference test.

[5] = 1 to 10 μg TRH/day i.v. from 4 to 6 or 8 weeks-of-age; cited from earlier work
[6] = TRH 1 or 10 μg/kg/day, GRF 10 μg/kg/day i.v., 21 days, cited from earlier work
[7] = Protein:fat ratio of broiler chickens under hormone treatments; format: in vivo; conditions: at the doses tested
[8] = induced hypothyroid state; cited from earlier work
[9] = finishing pigs, injection; cited from earlier work
[10] = 0.25 ppm T3, compared to the control group
[11] = plasma thyroid hormone bioactivity 360-1200% of normal
[12] = 5 to 7 weeks of age, T3 0.25 ppm, GRF 25 μg/kg i.v. 3x daily, mean ± SEM of three pens
[13] = 7 weeks of age, i.v. GRF, mean ± SEM of twelve cockerels
[14] = 7 weeks of age, i.v. GRF, twelve cockerels
[15] = 5 to 7 weeks of age, T3 0.25 ppm, GRF 10 μg/kg i.m. 3x daily, mean ± SEM of four pens
[16] = 7 weeks of age, i.m. GRF, four pens (2 birds/pen)
[17] = 7 weeks of age, i.m. GRF, mean ± SEM of four pens

With `N[C@@H](Cc1cc(I)c(Oc2ccc(O)c(I)c2)c(I)c1)C(=O)O` [T3, 3,3',5-triiodo-L-thyronine] the “Effect upon weight gain” value ([1]; 0.1 ppm T3 in finishing feed) was “no significant adverse effect”, the “Increase of protein accretion in breast and leg muscle” value ([1]; 0.25 ppm T3) was 45-88% and the “Reduction of abdominal fat weight” value ([1]; 0.25 ppm T3) was 22%. The “Increase of FAR of leg muscle” value [1, 10] was 45%, the “Increase of FAR of pectoralis major (breast muscle)” value [1, 10] was 88% and the “Effect on growth rate” value ([1]; 0.25 ppm T3 in feed) was “virtually no statistically significant adverse effect”. For the same molecule, the “Plasma T3 level” value ([1]; 0.25 ppm T3 in feed) was 2.7 ± 0.2 ng/mL, the “Plasma T3 level (control group = 100% of normal)” value ([1]; 0.25 ppm T3 in feed) was ~ 208% and the “Increase of rate of protein synthesis in the leg muscle” value ([1]; 0.25 to 4 ppm of feed, p<0.05) was “at least 49%”. The “Plasma T3 level” value ([1]; 1 ppm T3 in feed) was 4.5 ± 0.8 ng/mL, the “Plasma T3 level (control group = 100% of normal)” value ([1]; 1 ppm T3 in feed) was ~ 346% and the “Effect upon weight gain” value ([1]; 1 ppm T3 in finishing feed) was “some deviation from normal weight gain”. For the same molecule, the “Plasma T3 level” value ([1]; 4 ppm T3 in feed) was 16.3 ± 2.6 ng/mL, the “Plasma T3 level (control group = 100% of normal)” value ([1]; 4 ppm T3 in feed) was ~ 125% and the “Increase of fractional degradation rate of breast muscle” value ([1]; 4 ppm of T3) was 116%. The “Increase of fractional synthesis rate (FSR) of the pectoralis major (breast) muscle” value ([1]; 4 ppm of T3, p<0.05) was 56%, the “Fractional Accretion Rate (FAR) in the pectoralis major (breast) muscle” value ([1]; T3 doses in the 1 to 4 ppm range) was “affected negatively” and the “Plasma GH levels” value ([1]; dietary T3 during the finishing phase) was “decrease”. The Glucagon secretion ([1]; dietary T3 treatment alone) was “increased”, the Insulin secretion ([1]; dietary T3 treatment alone) was “depresses” and the “Protein synthesis rate in breast muscle” value ([1]; lower doses of T3 (0.25 to 1 ppm)) was “only a slight effect”. For the same molecule, the “Depression of body weight gain” value [1, 11] was at most 57%, the “Depression of feed consumption” value [1, 11] was at most 35% and the “ADG (average daily weight gain)” value ([2]; 5 to 7 weeks of age, T3 0.25 ppm in feed, GRF 25 μg/kg i.v. three times daily, mean ± SEM of three pens) was 70.7 ± 5.3. For the same molecule, the “ADFC (average daily feed consumption)” value [2, 12] was 157.0 ± 7.2, the “GTF (gain-to-feed ratio)” value [2, 12] was 0.448 ± 0.021 and the “Increase of body water content” value ([2]; 7 weeks of age, vs control) was 2%. The “Reduction of body fat content” value ([2]; 7 weeks of age, vs control) was 10%, the “Final body weight BW” value [2, 13] was 2.82 ± 0.06 kg and the “Relative weight of abdominal fat” value [2, 13] was 1.54 ± 0.14 % BW. For the same molecule, the “Relative weight of liver” value [2, 13] was 2.06 ± 0.05 % BW, the “Body composition: ash” value [2, 14] was 2.45 ± 0.04 % BW and the “Body composition: fat” value [2, 14] was 11.5 ± 0.64 % BW. For the same molecule, the “Body composition: protein” value [2, 14] was 18.8 ± 0.19 % BW, the “Body composition: water” value [2, 14] was 67.0 ± 0.50 % BW and the “Reduction of abdominal fat weight” value ([2]; compared to the CF+BI group) was 20%. The “Effect on ADG, ADFC or the GTF ratio” value ([2]; dietary T3 or daily i.v. GRF alone, or in combination) was “did not significantly affect”, the “Growth performance (body weight gain and feed efficiency)” value [3] was “reduced body weight gain and feed efficiency” and the “ADG (average daily weight gain)” value ([4]; 5 to 7 weeks of age, T3 0.25 ppm in feed, GRF 10 μg/kg i.m. three times daily, 25% protein ration, mean ± SEM of four pens) was 76.5 ± 3.0. The “ADFC (average daily feed consumption)” value [4, 15] was 185.1 ± 7.1, the “GTF (gain-to-feed ratio)” value [4, 15] was 0.414 ± 0.01 and the “Reduction of total body fat content” value ([4]; 7-week-old chickens, compared to the CF+BI group) was 10%. For the same molecule, the “Final body weight BW” value ([4]; 7 weeks of age, T3 0.25 ppm, GRF 10 μg/kg i.m. 3x daily, mean ± SEM of four pens) was 2.75 ± 0.05 kg, the “Body composition: ash” value [4, 16] was 2.24 ± 0.08 % BW and the “Body composition: fat” value [4, 16] was 10.0 ± 0.78 % BW. The “Body composition: protein” value [4, 16] was 17.1 ± 0.26 % BW, the “Body composition: water” value [4, 16] was 67.6 ± 0.70 % BW and the “Relative weight of abdominal fat pad” value [4, 17] was 1.12 ± 0.11 % BW. For the same molecule, the “Relative weight of liver” value [4, 17] was 1.99 ± 0.09 % BW, the “Reduction of abdominal fat weight” value ([4]; compared to the CF+BC group, P<0.05) was 31% and the “Effect on ADG, ADFC or GTF” value ([4]; dietary T3 or daily i.m. GRF) was “no effect”.

For `NC(=O)[C@@H]1CCCN1C(=O)[C@H](Cc1c[nH]cn1)NC(=O)[C@@H]1CCC(=O)N1` [TRH, pyro-L-Glu-L-His-L-Pro-NH2], the Growth rate [5] is listed as “capable of increasing the growth rate”, the “Plasma GH levels” value [6] is listed as “elevated” and the “Growth rate and feed efficiency” value ([6]; alone or in combination) is listed as “failed to stimulate growth rate or improve feed efficiency”. The “Effect on protein:fat ratio” value [7] was “decrease”.

For `CCCc1cc(=O)[nH]c(=S)[nH]1` [propylthiouracil], the Body fat [8] is given as “increased accumulation of body fat”, the Plasma insulin levels [8] is given as “elevated” and the “Effect on protein:fat ratio” value [7] is given as “decrease”.

B1: GH: growth hormone (e.g. ncGH, natural chicken GH) (protein, UniProt P08998 26-216, looked up)
Somatotropin: TFPAMPLSNLFANAVLRAQHLHLLAAETYKEFERTYIPEDQRYTNKNSQAAFCYSETIPAPTGKDDAQQKSDMELLRFSLVLIQSWLTPVQYLSKVFTNNLVFGTSDRVFEKLKDLEEGIQALMRELEDRSPRGPQLLRPTYDKFDIHLRNEDALLKNYGLLSCFKKDLHKVETYLKVMKCRRFGESNCTI
In the case of B1, the “Effect on protein:fat ratio” value [7] is reported as “decrease”.

B2: pGH: purified porcine growth hormone (protein, UniProt P01248 27-216, looked up)
Somatotropin: FPAMPLSSLFANAVLRAQHLHQLAADTYKEFERAYIPEGQRYSIQNAQAAFCFSETIPAPTGKDEAQQRSDVELLRFSLLLIQSWLGPVQFLSRVFTNSLVFGTSDRVYEKLKDLEEGIQALMRELEDGSPRAGQILKQTYDKFDTNLRSDDALLKNYGLLSCFKKDLHKAETYLRVMKCRRFVESSCAF
For B2, the “Improvement of feed conversion” value [9] is given as 7-19%, the “Increase of growth rate” value [9] is given as 10-14% and the “Increase of muscle mass” value [9] is given as 24-36%. The “Reduction of carcass fat content” value [9] was 18-25%.
